Source: patent publication US20150105252A1, “SUBSTITUTED PYRAZOLES AS HERBICIDES” (E I DU PONT DE NEMOURS AND COMPANY, priority 2013, published 2015)

Columns and labels:
barnyardgrass [1] = assay: Test A preemergence; format: in vivo, Echinochloa crus-galli; details: preemergence
In short: (§1)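 Greenhouse test in loam soil/sand blend; compounds formulated in non-phytotoxic solvent with surfactant, applied as preemergence directed soil spray or postemergence to plants 2–10 cm tall at one- to two-leaf stage. Injury rated visually versus untreated controls after approximately 10 days on a 0 (no effect) to 100 (complete control) scale.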

pigweed [2] = assay: Test A postemergence; format: in vivo, Amaranthus retroflexus
In short: as §1

Italian ryegrass [3] = assay: Test A postemergence; format: in vivo, Lolium multiflorum
In short: as §1

rice = assay: Test B flood; format: in vivo, Oryza sativa; details: 250 g ai/ha, visual rating on 0 to 100 scale (0 no effect, 100 complete control), 13 to 15 days
In short: (§2)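 2-leaf plants; pots flooded 3 cm over soil; compound added to paddy water, depth kept constant. Greenhouse 13–15 d. Visual rating vs controls, 0–100 scale (100 = complete control); dash = no result.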

common ragweed [4] = assay: Test A preemergence; format: in vivo, Ambrosia elation
Description: (§3) Seeds of plant species selected from barnyardgrass (Echinochloa crus-galli), kochia (Kochia scoparia), common ragweed (Ambrosia elation), Italian ryegrass (Lolium multiflorum), crabgrass, large (large crabgrass, Digitaria sanguinalis), foxtail, giant (giant foxtail, Setaria faberii), morningglory (Ipomoea spp.), pigweed (redroot pigweed, Amaranthus retroflexus), velvetleaf (Abutilon theophrasti), wheat (Triticum aestivum), and corn (Zea mays) were planted into a blend of loam soil and sand and treated preemergence with a directed soil spray using test chemicals formulated in a non-phytotoxic solvent mixture which included a surfactant.
(§4) At the same time, plants selected from these crop and weed species and also blackgrass (Alopecurus myosuroides), and galium (catchweed bedstraw, Galium aparine) were planted in pots containing the same blend of loam soil and sand and treated with postemergence applications of test chemicals formulated in the same manner. Plants ranged in height from 2 to 10 cm and were in the one- to two-leaf stage for the postemergence treatment. Treated plants and untreated controls were maintained in a greenhouse for approximately 10 days, after which time all treated plants were compared to untreated controls and visually evaluated for injury. Plant response ratings, summarized in Table A, are based on a 0 to 100 scale where 0 is no effect and 100 is complete control. A dash (-) response means no test result.

barnyardgrass [5] = assay: Test B flood; format: in vivo, Echinochloa crus-galli; details: 250 g ai/ha, visual rating on 0 to 100 scale (0 no effect, 100 complete control), 13 to 15 days
In short: as §2

sedge, umbrella = assay: Test B flood; format: in vivo, Cyperus difformis; details: 250 g ai/ha, visual rating on 0 to 100 scale (0 no effect, 100 complete control), 13 to 15 days
In short: as §2

blackgrass = assay: Test A postemergence; format: in vivo, Alopecurus myosuroides
Description: as §3, §4

kochia [6] = assay: Test A preemergence; format: in vivo, Kochia scoparia
Description: as §3, §4

barnyardgrass [7] = assay: Test A postemergence; format: in vivo, Echinochloa crus-galli
In short: as §1

wheat = assay: Test A postemergence; format: in vivo, Triticum aestivum
In short: as §1

foxtail, giant [8] = assay: Test A preemergence; format: in vivo, Setaria faberii; details: preemergence
In short: as §1

Italian ryegrass [9] = assay: Test A preemergence; format: in vivo, Lolium multiflorum
In short: as §1

galium = assay: Test A postemergence; format: in vivo, Galium aparine
Description: as §3, §4

common ragweed [10] = assay: Test A postemergence; format: in vivo, Ambrosia elation
Description: as §3, §4

ducksalad = assay: Test B flood; format: in vivo, Heteranthera limosa; details: 250 g ai/ha, visual rating on 0 to 100 scale (0 no effect, 100 complete control), 13 to 15 days
In short: as §2

foxtail, giant [11] = assay: Test A postemergence; format: in vivo, Setaria faberii
In short: as §1

corn = assay: Test A postemergence; format: in vivo, Zea mays
In short: as §1

pigweed [12] = assay: Test A preemergence; format: in vivo, Amaranthus retroflexus; details: preemergence
In short: as §1

kochia [13] = assay: Test A postemergence; format: in vivo, Kochia scoparia
In short: as §1

[14] = 125 g ai/ha, visual injury, 0 to 100 scale, approx. 10 days
[15] = 500 g ai/ha, visual injury after approx. 10 days, 0 to 100 scale (0 no effect, 100 complete control)
[16] = Postemergence, 500 g ai/ha, 0 to 100 scale (0 no effect, 100 complete control)
[17] = postemergence, 125 g ai/ha, about 10 days, visual rating on 0 to 100 scale (0 no effect, 100 complete control)

SMILES	Barnyardgrass plant response rating (barnyardgrass [1]; [14])	Barnyardgrass plant response rating (barnyardgrass [1]; [15])	Pigweed plant response rating (pigweed [2]; [16])	Pigweed plant response rating (pigweed [2]; [17])	Italian Ryegrass plant response rating (Italian ryegrass [3]; [16])	Italian Ryegrass plant response rating (Italian ryegrass [3]; [17])	Plant response rating, Rice (rice)	Common Ragweed plant response rating (common ragweed [4]; [14])	Common Ragweed plant response rating (common ragweed [4]; [15])	Plant response rating, Barnyardgrass (barnyardgrass [5])	Plant response rating, Sedge, Umbrella (sedge, umbrella)	Blackgrass plant response rating (blackgrass; [16])	Blackgrass plant response rating (blackgrass; [17])	Kochia plant response rating (kochia [6]; [14])	Kochia plant response rating (kochia [6]; [15])	Barnyardgrass plant response rating (barnyardgrass [7]; [16])	Barnyardgrass plant response rating (barnyardgrass [7]; [17])	Wheat plant response rating (wheat; [16])	Wheat plant response rating (wheat; [17])	Foxtail, Giant plant response rating (foxtail, giant [8]; [14])	also measured
CCCNC(=O)c1cc(CC)n(Cc2cc(OC(F)F)nn2C)n1 [Compound 134]	0	90	90	40	10	0	0	10	80	0	0	50	10	80	100	30	10	10	0	20	Foxtail, Giant plant response rating (foxtail, giant [8]; [15]): 100; Italian Ryegrass plant response rating (Italian ryegrass [9]; [14]): 0; Italian Ryegrass plant response rating (Italian ryegrass [9]; [15]): 10; Galium plant response rating (galium; [16]): 70; Galium plant response rating (galium; [17]): 30; Common Ragweed plant response rating (common ragweed [10]; [16]): 30; Common Ragweed plant response rating (common ragweed [10]; [17]): 20; Plant response rating, Ducksalad (ducksalad): 0; Foxtail, Giant plant response rating (foxtail, giant [11]; [16]): 70; Foxtail, Giant plant response rating (foxtail, giant [11]; [17]): 10; Corn plant response rating (corn; [16]): 30; Corn plant response rating (corn; [17]): 10; Pigweed plant response rating (pigweed [12]; [14]): 20; Pigweed plant response rating (pigweed [12]; [15]): 100; Kochia plant response rating (kochia [13]; [16]): 90; Kochia plant response rating (kochia [13]; [17]): 60
CCCCNC(=O)c1cc(CC)n(Cc2cc(OC(F)F)nn2C)n1 [Compound 135]	0	0	40	10	0	0	0	0	0	0	0	20	0	70	100	10	10	0	0	0	Foxtail, Giant plant response rating (foxtail, giant [8]; [15]): 50; Italian Ryegrass plant response rating (Italian ryegrass [9]; [14]): 0; Italian Ryegrass plant response rating (Italian ryegrass [9]; [15]): 0; Galium plant response rating (galium; [16]): 50; Galium plant response rating (galium; [17]): 20; Common Ragweed plant response rating (common ragweed [10]; [16]): 30; Common Ragweed plant response rating (common ragweed [10]; [17]): 10; Plant response rating, Ducksalad (ducksalad): 0; Foxtail, Giant plant response rating (foxtail, giant [11]; [16]): 10; Foxtail, Giant plant response rating (foxtail, giant [11]; [17]): 0; Corn plant response rating (corn; [16]): 20; Corn plant response rating (corn; [17]): 10; Pigweed plant response rating (pigweed [12]; [14]): 0; Pigweed plant response rating (pigweed [12]; [15]): 50; Kochia plant response rating (kochia [13]; [16]): 100; Kochia plant response rating (kochia [13]; [17]): 70
CCc1cc(C(=O)NC(C)C)nn1Cc1cc(OC(F)F)nn1C [Compound 137]	10	70	80	50	20	0	0	10	100	0	30	50	10	30	100	60	0	10	0	20	Foxtail, Giant plant response rating (foxtail, giant [8]; [15]): 80; Italian Ryegrass plant response rating (Italian ryegrass [9]; [14]): 0; Italian Ryegrass plant response rating (Italian ryegrass [9]; [15]): 40; Galium plant response rating (galium; [16]): 80; Galium plant response rating (galium; [17]): 50; Common Ragweed plant response rating (common ragweed [10]; [16]): 30; Common Ragweed plant response rating (common ragweed [10]; [17]): 10; Plant response rating, Ducksalad (ducksalad): 30; Foxtail, Giant plant response rating (foxtail, giant [11]; [16]): 70; Foxtail, Giant plant response rating (foxtail, giant [11]; [17]): 10; Corn plant response rating (corn; [16]): 30; Corn plant response rating (corn; [17]): 10; Pigweed plant response rating (pigweed [12]; [14]): 60; Pigweed plant response rating (pigweed [12]; [15]): 100; Kochia plant response rating (kochia [13]; [16]): 90; Kochia plant response rating (kochia [13]; [17]): 50
